Test results taken from patent publication US6861235B1, “Method for controlling target microorganism” (priority 1998, dated 2005).
“Also recorded” adds a separate entry of the source. Read-outs that look alike come from different tables or passages of the source. Peptide text beside a SMILES is read from it.

How the values were obtained:
NKR strain [1] = assay type: cell-based, Burkholderia sp. N16-1 strain; settings: for cell count of the NKR strain in the soil vs no addition: pH-adjusted SB soil
NKR strain [2] = assay type: cell-based, Burkholderia sp. N16-1 strain
[3] = tested on: Ralstonia solanacearum OE1-1 strain; assay type: cell-based; settings: for cell count of the OE1-1 strain vs 0 ppm: Example 9; for control of R. solanacearum OE1-1 strain: Examples 9 and 10 summary, addition of 500 ppm or more
[4] = tested on: total cell count in the soil; assay type: cell-based
[5] = tested on: R. solanacearum OE1-1 strain; assay type: in vivo, tomato; settings: 500 ppm D-serine-added contaminated soil
[6] = Example 5, 5000 ppm added after 5 days at 20° C.
[7] = Biolog GN plate, compounds in parentheses showed slight color development
[8] = Example 7, SB soil, 5000 ppm substrate, D-serine metabolites

| Molecule | assimilation by the NKR strain (color development of an oxidation-reduction indicator) (NKR strain [2]; [7]) | also measured |
| --- | --- | --- |
| NC(CO)C(=O)O (racemic) [DL-serine] | – | cell count of the NKR strain in the soil vs no addition (NKR strain [1]; [6]): the effect of cell count control can be observed though the degree of reduction is small |
| CC(O)C(C)O (stereo not shown) [2,3-butanediol] | no color development | – |
| O=P(O)(O)OCC(O)CO [D, L-α-glycerol phosphate] | no color development | – |
| N[C@H](CS)C(=O)O [D-cysteine] | – | cell count of the NKR strain vs control section (NKR strain [1]; [8]): markedly declined; also recorded: exhibited control effects |
| O=C(CO)[C@H](O)[C@H](O)[C@H](O)CO [D-piscose] | slight color development | – |
| OC[C@H]1O[C@H](OC[C@H]2O[C@H](O[C@]3(CO)O[C@H](CO)[C@@H](O)[C@@H]3O)[C@H](O)[C@@H](O)[C@@H]2O)[C@H](O)[C@@H](O)[C@H]1O [D-raffinose] | no color development | – |
| O=C(O)[C@@H](O)[C@@H](O)[C@H](O)[C@@H](O)C(=O)O [D-saccharic acid] | slight color development | – |
| NC(CO)C(=O)O [D-serine, 2-amino-3-hydroxypropionic acid] | does not assimilate; also recorded: no color development | cell count of the OE1-1 strain vs control ([3]; Example 8, field soil, 5000 ppm): declined markedly; cell count of the OE1-1 strain vs 0 ppm ([3]; field soil, D-serine 500, 1000, 2000 or 5000 ppm): a reduction in the cell count; control of R. solanacearum OE1-1 strain [3]: works to control; total cell count in the soil [4]: almost no changes were observed; cell count of the NKR strain in the soil vs no addition (NKR strain [1]; Example 4, 0.5% D-serine added after 2 days culture at 30° C.): markedly reduced; also recorded: markedly declined; also recorded: very effective; cell count of the NKR strain in the soil vs no addition (NKR strain [1]; [6]): markedly declined; also recorded: very effective; cell count of the NKR strain vs control section (NKR strain [1]; Example 6, 5000 ppm, Kuroboku (black) soil A (field soil)): no effects were observed; cell count of the NKR strain vs control section (NKR strain [1]; Example 6, 5000 ppm, Kuroboku (black) soil B, sandy soils A, B, C, D (all soils excluding Kuroboku soil A)): markedly declined; germination of tomato seeds ([5]; day 4 after sowing): germination of the tomato seeds was observed; growth of young tomato seedlings ([5]; no-addition seedlings all died except one by day 10): grew normally |
| OC[C@H]1O[C@H](O[C@H]2O[C@H](CO)[C@@H](O)[C@H](O)[C@H]2O)[C@H](O)[C@@H](O)[C@@H]1O [D-trehalose] | slight color development | – |
| C[C@@H](N)C(=O)O [D-α-alanine] | no color development | cell count of the NKR strain vs control section (NKR strain [1]; [8]): markedly declined; also recorded: exhibited control effects |
| N[C@@H](CC(=O)O)C(=O)O [L-aspartic acid] | slight color development | – |
| NCCC[C@H](N)C(=O)O [L-omithine] | slight color development | – |
| N[C@@H](CO)C(=O)O [L-serine] | slight color development | cell count of the NKR strain in the soil vs no addition (NKR strain [1]; [6]): remained almost constant; also recorded: almost no effect |
| C[C@@H](O)[C@H](N)C(=O)O [L-threonine] | slight color development | – |
| CC(=O)O [acetic acid] | no color development | – |
| C[C@H](N)C(N)=O [alanine amide] | slight color development | – |
| O=C[C@H](O)[C@@H](O)[C@H](O[C@@H]1O[C@H](CO)[C@@H](O)[C@H](O)[C@H]1O)[C@H](O)CO [cellobiose] | slight color development | – |
| OC[C@@H](O)[C@@H](O)CO [erythritol] | no color development | – |
| NCCO [ethanolamine] | slight color development | cell count of the OE1-1 strain vs 0 ppm ([3]; ethanolamine 500 ppm sequentially added or 1000 ppm or greater): decrease in the cell counts; cell count of the OE1-1 strain vs 0 ppm ([3]; one-time addition of 500 ppm ethanolamine): did not exhibit sufficient effects; control of R. solanacearum OE1-1 strain [3]: works to control; total cell count in the soil [4]: remained constant; cell count of the NKR strain vs control section (NKR strain [1]; [8]): markedly declined; also recorded: exhibited control effects |
| O=P(O)(O)O[C@H]1O[C@H](CO)[C@@H](O)[C@H](O)[C@H]1O [glucose-1-phosphate] | no color development | – |
| O=C[C@H](O)[C@@H](O)[C@H](O)[C@H](O)COP(=O)(O)O [glucose-6-phosphate] | slight color development | – |
| NC(=O)[C@@H](O)[C@@H](O)[C@H](O)[C@@H](O)C=O [glucuronamide] | slight color development | – |
| NCC(=O)N[C@@H](CC(=O)O)C(=O)O [glycyl-L-aspartic acid] (H-Gly-Asp-OH) | no color development | – |
| C=C(CC(=O)O)C(=O)O [itaconic acid] | no color development | – |

| Molecule | assimilation by the NKR strain (color development of an oxidation-reduction indicator) (NKR strain [2]; [7]) | also measured |
| --- | --- | --- |
| O=C(O)CC(=O)O [malonic acid] | slight color development | – |
| OC[C@H]1O[C@H](O[C@H]2[C@H](O)[C@@H](O)[C@H](O)O[C@@H]2CO)[C@H](O)[C@@H](O)[C@@H]1O [maltose] | no color development | – |
| NCCc1ccccc1 [phenylethylamine] | no color development | – |
| CCC(=O)O [propionic acid] | no color development | – |
| NCCCCN [putrescine] | slight color development | – |
| CC(=O)C(=O)O [pyruvic acid] | – | cell count of the NKR strain vs control section (NKR strain [1]; [8]): markedly declined; also recorded: exhibited control effects |
| COc1ccc2nccc(C(=O)O)c2c1 [quininic acid] | slight color development | – |
| O=C(O)CCCCCCCCC(=O)O [sebacic acid] | slight color development | – |
| Cc1cn([C@H]2C[C@H](O)[C@@H](CO)O2)c(=O)[nH]c1=O [thymidine] | no color development | – |
| O=C(CO)[C@@H](O[C@H]1O[C@H](CO)[C@@H](O)[C@H](O)[C@H]1O)[C@H](O)[C@H](O)CO [turanose] | no color development | – |
| O=c1ccn([C@@H]2O[C@H](CO)[C@@H](O)[C@H]2O)c(=O)[nH]1 [uridine] | slight color development | – |
| O=C(O)/C=C/c1c[nH]cn1 [urocanic acid] | slight color development | – |
| OC[C@@H](O)[C@H](O)[C@@H](O)CO [xylitol] | no color development | – |
| OC[C@H]1O[C@@H](O[C@H]2[C@H](O)[C@@H](O)[C@@H](O)O[C@@H]2CO)[C@H](O)[C@@H](O)[C@H]1O [α-D-lactose] | slight color development | – |
| CCC(O)C(=O)O (stereo not drawn) [α-hydroxybutyric acid] | slight color development | – |
| CCC(=O)C(=O)O [α-ketobutyric acid] | slight color development | – |
| O=C(O)CCC(=O)C(=O)O [α-ketoglutaric acid] | slight color development | – |
| COC1OC(CO)C(O)C(O)C1O [β-methyl-D-glucose] | no color development | – |
| O=C(O)CCCO [γ-hydroxybutyric acid] | no color development | – |
| dextrin | no color development | – |
| gentiobiose | – | assimilation by the NKR strain (color development of an oxidation-reduction indicator) (NKR strain [2]): no color development |
| glycogen | no color development | – |
| α-cyclodexrin | no color development | – |
